Experimental data: the NIST ThermoML archive (doi:10.1021/acs.jced.7b00702)
Numbers after ± are expanded uncertainties.

Conditions: 100 kPa, Liquid; for viscosity: Falling or rolling sphere viscometry; for mass density: Vibrating tube method

CCn1cc[n+](C)c1.[Cl-].[Cl][Al]([Cl])[Cl] [1-ethyl-3-methyl-1H-imidazolium tetrachloroaluminate]
viscosity (293.15 K): 20.62 ± 0.19 mPa·s | mass density (293.15 K): 1299.32 ± 1.3 kg/m3 | viscosity (303.15 K): 15.69 ± 0.14 mPa·s | mass density (303.15 K): 1291.13 ± 1.3 kg/m3 | viscosity (313.15 K): 12.31 ± 0.11 mPa·s | mass density (313.15 K): 1283.05 ± 1.3 kg/m3 | viscosity (323.15 K): 9.952 ± 0.09 mPa·s | mass density (323.15 K): 1275.03 ± 1.3 kg/m3 | viscosity (333.15 K): 8.214 ± 0.074 mPa·s | mass density (333.15 K): 1267.1 ± 1.3 kg/m3 | viscosity (343.15 K): 6.927 ± 0.063 mPa·s | mass density (343.15 K): 1259.22 ± 1.3 kg/m3 | viscosity (353.15 K): 5.945 ± 0.054 mPa·s | mass density (353.15 K): 1251.41 ± 1.3 kg/m3
